PMC9037180, “Ligand-based design and synthesis of N'-Benzylidene-3,4-dimethoxybenzohydrazide derivatives as potential antimicrobial agents; evaluation by in vitro, in vivo, and in silico approaches with SAR studies” (Journal of Enzyme Inhibition and Medicinal Chemistry, 2022)
Converted amounts (≈) assume the structure as drawn. Where two headings read alike, the source gives them in different places.

Tests used:
[1] = Cytotoxicity on cells using MTT assay; assay type: cell-based; details: African green monkey, Vero cells (normal mammalian cell line)
Method: The newly synthesised compounds were looked deeply into their efficacy using in silico, in vitro, and in vivo approaches. On the other hand, the cytotoxicity assay was performed for the tested compounds using a normal mammalian Vero cell line by the MTT assay[31]^,[32].
Moreover, the cytotoxicity values of the target compounds were determined to calculate their corresponding IC50 values through the MTT assay. The IC50 value indicates the compound’s concentration that is required to inhibit 50% of the target cells.
The MTT (3–(4,5-dimethylthiazol-2-yl)-2,5-diphenyltetrazolium bromide) tetrazolium reduction assay protocol was applied to determine the cytotoxicity of the target compounds (4a–j) on cells.

Aciento MDR = assay: Minimal inhibitory concentration (MIC), broth dilution
S. typhi = assay: Minimal bactericidal concentration (MBC); assay type: cell-based; details: Salmonella enterica
NFKB2 = assay type: in vivo, rats; details: Mean ± SE
Method: Rats were divided randomly into equal fifteen groups, each containing 9 rats as follows: • Group 1: Rats were kept on standard laboratory chow and water ad libitum to serve as a control. • Group 2: Rats have injected IP with sterile distilled water (4ml/kg) daily for one week to serve as a control. • Group 3: Rats have injected IP with DEMSO (dimethyl sulfoxide) (4 ml/kg) daily for one week to serve as a control. • Group 4: Rats have injected IP with 4h (1.9 mg/kg) daily for one week. • Group 5: Rats have injected IP with 4h (3.8 mg/kg) daily for one week. • Group 6: Rats have injected IP with 4i (1.9 mg/kg) daily for one week. • Group 7: Rats have injected IP with 4i (3.8 mg/kg) daily for one week. • Group 8: Rats were infected by a single IM injection of S. aureus strain [1.0 ml) 1 × 10^7) colony-forming units]. • Group 9: Rats have injected IP with 4h (1.9 mg/kg) daily for one week on the 7th day after induction of infection by a single IM injection of S. aureus strain [1.0 ml (1 × 10^7) colony-forming units. • Group 10: Rats have injected IP with 4h (3.8 mg/kg) daily for one week on the 7th day after induction of infection by a single IM injection of S. aureus strain [1.0 ml (1 × 10^7) colony-forming units]. • Group 11: Rats were infected by a single IM injection of S. typhi strain [1.0 ml (1 × 10^7) colony forming units). • Group 12: Rats have injected IP with 4h (1.9 mg/kg) daily for one week. on the 7th day after induction of infection by a single IM injection of S. typhi strain [1.0 ml (1 × 10^7) colony-forming units]. • Group 13: Rats have injected IP with 4h (3.8 mg/kg) daily for one week on the 7th day after infection by a single IM injection of S. typhi strain [1.0 ml (1 × 10^7) colony-forming units]. • Group 14: Rats have injected IP with 4i (1.9 mg/kg) daily for one week. on the 7th day after induction of infection by a single IM injection of S. typhi strain [1.0 ml (1 × 10^7) colony-forming units]. • Group 15: Rats have injected IP with 4i (3.8 mg/kg) daily for one week. on the 7th day after induction of infection by a single IM injection of Salmonella strain [1.0 ml (1 × 10^7) colony-forming units].
Immunohistochemistry (IHC) was performed on paraffin sections and mounted on positively charged slides to detect caspase-3 as an indicator for apoptosis and nuclear factor kappa-light-chain-enhancer of activated B cells (NFKB2) for inflammation by using the avidin-biotin-peroxidase complex (ABC) method. The exact methodology was carried out as previously described in detail.
Caspase-3 and NFKB2 immunostaining were measured as area % in a standard measuring frame in representative five fields for each subject (liver and kidneys) in all groups using 100x magnification via light microscopy transferred to the screen. […]

[2] = test system: E. faecalis, Acientobacter, P. auriginosa, S. aureus, S. typhi, E. coli, C. albicans; assay: Average MIC over the nine tested microbial species (SAR); assay type: cell-based; details: for antimicrobial activity (SAR grading): based on MIC average values
From the text: Herein, we aimed to study the structure-antimicrobial activity relationship of the newly synthesised N'-benzylidene-3,4-dimethoxybenzohydrazide derivatives based on MIC average values[51]^,[52] as represented in the supplementary data (Table SI1). Thereby, the changes in their antimicrobial potential and spectrum upon structural modifications could be unveiled, thus offering clues for structural changes that are capable of increasing the antimicrobial potential.

S. aureus = assay: Biochemical analysis in S. aureus-infected rats; assay type: in vivo; details: first and second dose (1.9 and 3.8 mg/kg IP daily for one week)
Method: The compounds 4h and 4j were dissolved in DMSO (dimethyl sulfoxide) then further dilutions were made by using sterile distilled water. The doses of both candidates were calculated according to the method given by Paget and Barnes[60]. Sterile distilled water, DEMSO, and investigated compounds (4h (1.9 and 3.8 mg/kg) and 4j (1.9 and 3.8 mg/kg)) were injected in a volume of 4 ml/kg[61]. The experiment lasts two weeks, the 1st week for induction of infection in the infected groups and the 2nd week for the administration of the compounds in all groups. […]
ALT and AST were determined[66] using commercial kits obtained from Diamond Diagnostics, Egypt.
Serum urea was determined by using the modified Berthelot–Searcy method. Serum creatinine activity was also assessed by using the application of Jaffe’s reaction.
Serum levels of the pro-inflammatory cytokine, TNF-α, were determined by the quantitative enzyme immunoassay (EIA) kit purchased from R&D Systems (USA) according to the method of Howard and Harada[69], while that of anti-inflammatory cytokine IL-10 was according to Croft et al.. […]

Row | Molecule | IC50 [1] | MIC (Aciento MDR; Acinetobacter baumannii) | MBC (S. typhi) | NFKB2, Kidney (NFKB2; S. typhi infected rats, 1.9 mg/kg IP daily for one week) | NFKB2, Kidney (NFKB2; S. typhi infected rats, 3.8 mg/kg IP daily for one week) | NFKB2, Kidney (NFKB2; uninfected rats, 1.9 mg/kg IP daily for one week) | NFKB2, Kidney (NFKB2; uninfected rats, 3.8 mg/kg IP daily for one week) | antimicrobial activity (SAR grading) [2] | MIC ([2]; read-out: Average MIC) | MIC (Aciento MDR; Aciento MDR (AM)) | renal and liver functions, oxidative stress and inflammatory markers (urea, creatinine, ALT, AST, GSH, MDA, TNF-α, IL-10) (S. aureus) | Average MIC ([2]; average over nine microbial species)
1 | COc1ccc(C(=O)NN=Cc2ccc3ccccc3n2)cc1OC [Compound 4i, N'-(quinolin-2-ylmethylene)-3,4-dimethoxybenzohydrazide] | 305 µM | 373 µM (≈ 125 µg/mL) | 186 µM (≈ 62.5 µg/mL) | 28.693 ± 0.4494 area % | 11.91 ± 1.04 area % | 0.7513 ± 0.0671 area % | 0.4087 ± 0.08844 area % | weaker antimicrobial potential | 99.7 µM (≈ 33.4 µg/mL) | – | – | –
2 | N'-((3a,7a-dihydro-1H-indol-3-yl)methylene)-3,4-dimethoxybenzohydrazide [Compound 4h] | – | – | – | – | – | – | – | weaker antimicrobial potential | – | 193.40 µM | significant improvement in all the measured parameters | 112.13 µM
